Source: patent US6120762A, “C-terminal peptides of interferon γ” (priority 1998, dated 2000)
Where “and” joins values, the source holds several entries; their conditions need not be identical. Equal values may be shown once.

Tested on: VSV
Type: cell-based, Vesicular stomatitis virus

## Human IFNγ
  Effect on virus yield: had no effect

B1: muIFNγ (protein, UniProt P01580 23-155, looked up)
Interferon gamma: HGTVIESLESLNNYFNSSGIDVEEKSLFLDIWRNWQKDGDMKILQSQIISFYLRLFEVLKDNQAISNNISVIESHLITTFFSNSKAKKDAFMSIAKFEVNNPQVQRQAFNELIRVVHQLLPESSLRKRKRSRC
  Virus yield: 1.2 × 10^8 and 1.6 × 10^10
